Reference: patent US9550782B2, “Compounds and methods for treating diabetes” (Medivation Technologies, Inc., priority 2011, dated 2017)
Where “and” joins values, the source holds several entries; their conditions need not be identical. Identical values can stand only once.

Legend:
[1] = target: T1, human recombinant adrenergic α2A receptor (Homo sapiens, UniProt P08913); assay: Radioligand binding, adrenergic α2A ([3H]MK-912); details: [3H]MK-912, repeat datapoints each shown; for Percentage inhibition of ligand binding, Adrenergic α2A (0.1 μM): compound at 0.1 μM; for Percentage inhibition of ligand binding, Adrenergic α2A (0.03 μM): compound at 0.03 μM
T1 construct: expressed in transfected cells; host or cells: insect Sf9 cells
T1 sequence (P08913 1-465): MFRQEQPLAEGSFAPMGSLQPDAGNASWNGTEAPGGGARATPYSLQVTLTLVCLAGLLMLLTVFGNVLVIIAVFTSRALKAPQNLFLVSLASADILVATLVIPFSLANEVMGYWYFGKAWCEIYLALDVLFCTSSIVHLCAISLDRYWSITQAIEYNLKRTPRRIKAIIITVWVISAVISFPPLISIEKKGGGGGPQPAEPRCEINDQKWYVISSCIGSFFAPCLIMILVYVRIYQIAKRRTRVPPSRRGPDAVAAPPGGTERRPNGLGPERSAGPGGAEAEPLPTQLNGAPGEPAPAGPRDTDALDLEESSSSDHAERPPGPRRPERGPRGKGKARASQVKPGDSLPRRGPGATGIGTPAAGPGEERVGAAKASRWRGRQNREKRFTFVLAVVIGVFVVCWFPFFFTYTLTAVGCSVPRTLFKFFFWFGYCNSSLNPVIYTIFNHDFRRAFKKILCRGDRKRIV
In short: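 Receptor expressed in Sf9 cells, in 50 mM Tris-HCl pH 7.4, 12.5 mM MgCl2, 2 mM EDTA; compounds incubated with 1 nM [3H]MK-912 for 60 min at 25 °C.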

[2] = target: T2, rat adrenergic α1B receptor (Rattus norvegicus, UniProt P15823); assay: Radioligand binding, adrenergic α1B ([3H]Prazosin); design: species or system Wistar Rat; details: repeat datapoints each shown; for Percentage inhibition of ligand binding, Adrenergic α1B (0.1 μM): compound at 0.1 μM; for Percentage inhibition of ligand binding, Adrenergic α1B (0.03 μM): compound at 0.03 μM
T2 construct: rat adrenergic α1B receptor obtained from Wistar Rat liver; from tissue; host or cells: Wistar rat liver
T2 sequence (P15823 1-515): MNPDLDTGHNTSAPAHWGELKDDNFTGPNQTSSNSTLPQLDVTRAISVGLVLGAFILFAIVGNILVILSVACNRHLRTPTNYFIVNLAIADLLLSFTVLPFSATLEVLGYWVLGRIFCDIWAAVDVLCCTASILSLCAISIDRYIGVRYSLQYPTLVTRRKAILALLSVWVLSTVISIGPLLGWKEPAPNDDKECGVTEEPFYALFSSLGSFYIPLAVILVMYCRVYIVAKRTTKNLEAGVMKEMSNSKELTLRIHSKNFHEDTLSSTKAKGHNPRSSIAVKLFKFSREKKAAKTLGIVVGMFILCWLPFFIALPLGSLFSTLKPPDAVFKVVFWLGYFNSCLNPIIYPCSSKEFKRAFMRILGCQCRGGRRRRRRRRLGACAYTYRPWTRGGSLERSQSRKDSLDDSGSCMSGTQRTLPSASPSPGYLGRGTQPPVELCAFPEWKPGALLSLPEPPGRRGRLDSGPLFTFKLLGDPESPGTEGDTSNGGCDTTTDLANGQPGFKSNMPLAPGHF
In short: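 Specific binding, taken as total minus that remaining with 10 μM phentolamine, is measured after filtration and counting. Rat liver receptor preparation and 0.25 nM [3H]prazosin are incubated with compound in 50 mM Tris-HCl (pH 7.4, 0.5 mM EDTA) at 25° C for 60 min. Activity is reported as percent inhibition.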

[3] = target: T3, human recombinant adrenergic α2B receptor (Homo sapiens, UniProt P18089); assay: Radioligand binding, adrenergic α2B ([3H]Rauwolscine); details: compound at 0.03 μM, repeat datapoints each shown, 0.03 µM
T3 construct: expressed in transfected cells; host or cells: CHO-K1
T3 sequence (P18089 1-450): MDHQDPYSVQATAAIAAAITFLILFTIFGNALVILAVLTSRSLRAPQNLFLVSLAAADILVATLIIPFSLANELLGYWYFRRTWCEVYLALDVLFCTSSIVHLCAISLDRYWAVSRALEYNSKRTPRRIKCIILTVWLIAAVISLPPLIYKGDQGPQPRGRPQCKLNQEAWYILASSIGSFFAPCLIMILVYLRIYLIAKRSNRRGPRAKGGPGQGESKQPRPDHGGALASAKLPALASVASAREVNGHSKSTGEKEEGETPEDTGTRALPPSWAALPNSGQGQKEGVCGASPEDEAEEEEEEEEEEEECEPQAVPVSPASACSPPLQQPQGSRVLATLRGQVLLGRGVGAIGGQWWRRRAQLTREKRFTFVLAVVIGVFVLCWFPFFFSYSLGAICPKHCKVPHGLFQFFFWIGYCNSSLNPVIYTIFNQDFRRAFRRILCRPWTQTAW
Experimental: To evaluate in radioligand binding assays the activity of compounds of the invention, human recombinant adrenergic α2B receptor expressed in Chinese hamster ovary (CHO) K1 cells (Uhlen, S. et al, Eur. J. Pharmacol. 343(1):93, 1998) in a modified Tris-HCl buffer (50 mM Tris-HCl, pH 7.4, 12.5 mM MgCl2, 1 mM EDTA, 0.2% BSA) was used. Compounds of the invention were incubated with 2.5 nM [3H]Rauwolscine for 60 min at 25° C. Non-specific binding was estimated in the presence of 10 μM Prazosin. Receptor proteins were filtered and washed, the filters were then counted to determine [3H]Rauwolscine specifically bound. […] Compounds of the invention were tested in this biochemical assay and percent inhibition of specific binding was determined. Biochemical assay results are presented as the percent inhibition of specific binding in Table B1.

| SMILES | Percentage inhibition of ligand binding, Adrenergic α2A (0.1 μM) [1] | Percentage inhibition of ligand binding, Adrenergic α1B (0.1 μM) ([2]; 0.1 µM) | Percentage inhibition of ligand binding, Adrenergic α2B (0.03 μM) [3] | Percentage inhibition of ligand binding, Adrenergic α1B (0.1 μM) [2] [%] | Percentage inhibition of ligand binding, Adrenergic α2A (0.03 μM) [1] [%] | Percentage inhibition of ligand binding, Adrenergic α1B (0.03 μM) [2] [%] |
| --- | --- | --- | --- | --- | --- | --- |
| Cc1ccc2c(c1)c1c(n2CC(O)c2cccnc2)CCN(CCO)C1 (single isomer, unassigned) [21a] | −1% | 5% | −2% | – | – | – |
| Cc1ccc2c(c1)c1c(n2CC(O)c2cccnc2)CCN(CCO)C1 (single isomer, unassigned) [21b] | −3% | −2% | 1% | – | – | – |
| Cc1ccc2c(c1)c1c(n2CC(O)c2ccccn2)CN(C)CC1 (single isomer, unassigned) [22a] | 16% | 19% | 22% | – | – | – |
| Cc1ccc2c(c1)c1c(n2CC(O)c2ccccn2)CN(C)CC1 (single isomer, unassigned) [22b] | 0% | 9% | 30% | – | – | – |
| Cc1ccc2c(c1)c1c(n2CC(C)(O)c2cccnc2)CCNC1 (single isomer, unassigned) [24a] | 8% | – | 63% | 8 | – | – |
| Cc1ccc2c(c1)c1c(n2CC(C)(O)c2cccnc2)CCNC1 (single isomer, unassigned) [24b] | 15% | – | 29% | 8 | – | – |
| Cc1cnc2c(c1)c1c(n2CC(C)(O)c2cccnc2)CCN2CCCC12 (single isomer, unassigned) [26c] | 19% | 1% | 1% and 7% | – | – | – |
| Cc1cnc2c(c1)c1c(n2CC(C)(O)c2cccnc2)CCN2CCCC12 (single isomer, unassigned) [26d] | 0% | −2% | 6% and 11% | – | – | – |
| CN1CCc2c(n(CC(C)(O)c3cccnc3)c3ccc(Cl)cc23)C1 (single isomer, unassigned) [28a] | 28% | 41% | 96% | – | – | – |
| CN1CCc2c(n(CC(C)(O)c3cccnc3)c3ccc(Cl)cc23)C1 (single isomer, unassigned) [28b] | 24% | 20% | 37% | – | – | – |
| Cc1ccc2c(c1)c1c(n2CC(C)(O)c2ccc(C)nc2)CCN(C)C1 (single isomer, unassigned) [29a] | 35% and 39% | 32% and 38% | 98% and 100% | – | 16 | 19 |
| CN1CCc2c(c3cc(Cl)ccc3n2CC(C)(O)c2cccnc2)C1 (single isomer, unassigned) [31a] | 19% and 27% | 25% and 28% | 93% and 97% | – | 11 | 16 |
| CCC1c2c(c3cc(C)ccc3n2CC(O)c2ccncc2)C2CCN1C2 (single isomer, unassigned) [36a] | 8% | 14% | 33% | – | – | – |
| CCC1c2c(c3cc(C)ccc3n2CC(O)c2ccncc2)C2CCN1C2 (single isomer, unassigned) [36b] | 0% | 11% | −1% | – | – | – |
| OC(Cn1c2c(c3cccnc31)CN1CCCC1C2)c1ccncc1 (single isomer, unassigned) [37a] | 18% | −5% | 2% | – | – | – |
| OC(Cn1c2c(c3cccnc31)CN1CCCC1C2)c1ccncc1 (single isomer, unassigned) [37b] | −20% | −10% | −3% | – | – | – |
| OC(Cn1c2c(c3cccnc31)CN1CCCC1C2)c1ccncc1 (single isomer, unassigned) [37c] | 6% | 2% | 0% | – | – | – |
| OC(Cn1c2c(c3cccnc31)CN1CCCC1C2)c1ccncc1 (single isomer, unassigned) [37d] | 8% | 2% | −3% | – | – | – |
| Cc1ccc2c(c1)c1c(n2CC(O)c2ccncc2)C(C)N2CCC1C2 (single isomer, unassigned) [38a] | 14% | 11% | 35% | – | – | – |
| Cc1ccc2c(c1)c1c(n2CC(O)c2ccncc2)C(C)N2CCC1C2 (single isomer, unassigned) [38b] | −1% | 20% | 17% | – | – | – |
